Reference: patent US10813354B2, “Herbicidal pyridazinone compounds” (SYNGENTA PARTICIPATIONS AG, priority 2016, dated 2020)

Columns and labels:
Type in all cases: in vivo
Conditions in all cases: sprayed after 10 days cultivation, evaluated after 14 days
[1] = test system: ABUTH (Abutilon theophrasti); assay: Post-emergence glasshouse herbicide test on ABUTH
Protocol: (§1) Seeds of a variety of test species HORVW (Hordeum vulgare—barley), ABUTH (Abutilon theophrasti), AMARE (Amaranthus retroflexus) and ECHCG (Echinochloa crus-galli) were sown in standard soil in pots. After cultivation for 10 days cultivation under controlled conditions in a glasshouse (at 24/16° C., day/night; 14 hours light; 65% humidity), the plants were sprayed with an aqueous spray solution derived from the formulation of the technical active ingredient in 0.6 ml acetone and 45 ml formulation solution containing 10.6% Emulsogen EL (Registry number 61791-12-6), 42.2% N-methyl pyrrolidone, 42.2% dipropylene glycol monomethyl ether (CAS RN 34590-94-8) and 0.2% X-77 (CAS RN 11097-66-8).
(§2) The test plants were then grown in a glasshouse under controlled conditions in a glasshouse (at 24/16° C., day/night; 14 hours light; 65% humidity) and watered twice daily. After 14 days, the test was evaluated (100=total damage to plant; 0=no damage to plant).

[2] = test system: ECHCG (Echinochloa crus-galli); assay: Post-emergence glasshouse herbicide test on ECHCG
Protocol: as §1, §2

[3] = test system: HORVW (Hordeum vulgare—barley); assay: Post-emergence glasshouse herbicide test, crop damage on barley
Protocol: as §1, §2

[4] = test system: AMARE (Amaranthus retroflexus); assay: Post-emergence glasshouse herbicide test on AMARE
Protocol: as §1, §2

COc1ccc(-n2nc(C)cc(C(=O)C3C(=O)C(C)(C)C(=O)C(C)(C)C3=O)c2=O)cc1OC [Compound 1.5]
ABUTH damage to plant (100=total damage to plant; 0=no damage to plant) ([1]; Rate 125 g/ha): 100
ABUTH damage to plant (100=total damage to plant; 0=no damage to plant) ([1]; Rate 250 g/ha): 100
ECHCG damage to plant (100=total damage to plant; 0=no damage to plant) ([2]; Rate 125 g/ha): 90
ECHCG damage to plant (100=total damage to plant; 0=no damage to plant) ([2]; Rate 250 g/ha): 90
HORVW damage to plant (100=total damage to plant; 0=no damage to plant) ([3]; Rate 125 g/ha): 0
HORVW damage to plant (100=total damage to plant; 0=no damage to plant) ([3]; Rate 250 g/ha): 0
AMARE damage to plant (100=total damage to plant; 0=no damage to plant) ([4]; Rate 125 g/ha): 100
AMARE damage to plant (100=total damage to plant; 0=no damage to plant) ([4]; Rate 250 g/ha): 100

COc1ccc(-n2nc(C)cc(C(=O)C3C(=O)C4CCC(C4)C3=O)c2=O)cc1OC (centres unmarked) [Compound 1.1, 3-[2-(3,4-dimethoxyphenyl)-6-methyl-3-oxo-pyridazine-4-carbonyl]bicyclo[3.2.1]octane-2,4-dione]
ABUTH damage to plant (100=total damage to plant; 0=no damage to plant) ([1]; Rate 125 g/ha): 100
ABUTH damage to plant (100=total damage to plant; 0=no damage to plant) ([1]; Rate 250 g/ha): 100
ECHCG damage to plant (100=total damage to plant; 0=no damage to plant) ([2]; Rate 125 g/ha): 100
ECHCG damage to plant (100=total damage to plant; 0=no damage to plant) ([2]; Rate 250 g/ha): 100
HORVW damage to plant (100=total damage to plant; 0=no damage to plant) ([3]; Rate 125 g/ha): 0
HORVW damage to plant (100=total damage to plant; 0=no damage to plant) ([3]; Rate 250 g/ha): 0
AMARE damage to plant (100=total damage to plant; 0=no damage to plant) ([4]; Rate 125 g/ha): 100
AMARE damage to plant (100=total damage to plant; 0=no damage to plant) ([4]; Rate 250 g/ha): 100

COc1ccc(-n2nc(C)cc(C(=O)C3C(=O)CCCC3=O)c2=O)cc1OC [Compound 1.3, 2-[2-(3,4-Dimethoxyphenyl)-6-methyl-3-oxo-pyridazine-4-carbonyl]cyclohexane-1,3-dione]
ABUTH damage to plant (100=total damage to plant; 0=no damage to plant) ([1]; Rate 125 g/ha): 100
ABUTH damage to plant (100=total damage to plant; 0=no damage to plant) ([1]; Rate 250 g/ha): 100
ECHCG damage to plant (100=total damage to plant; 0=no damage to plant) ([2]; Rate 125 g/ha): 100
ECHCG damage to plant (100=total damage to plant; 0=no damage to plant) ([2]; Rate 250 g/ha): 100
HORVW damage to plant (100=total damage to plant; 0=no damage to plant) ([3]; Rate 125 g/ha): 0
HORVW damage to plant (100=total damage to plant; 0=no damage to plant) ([3]; Rate 250 g/ha): 0
AMARE damage to plant (100=total damage to plant; 0=no damage to plant) ([4]; Rate 125 g/ha): 100
AMARE damage to plant (100=total damage to plant; 0=no damage to plant) ([4]; Rate 250 g/ha): 100

COc1ccc(-n2nc(C)cc(C(=O)C3C(=O)CC(C)(C)CC3=O)c2=O)cc1OC [Compound 1.4]
ABUTH damage to plant (100=total damage to plant; 0=no damage to plant) ([1]; Rate 125 g/ha): 100
ABUTH damage to plant (100=total damage to plant; 0=no damage to plant) ([1]; Rate 250 g/ha): 100
ECHCG damage to plant (100=total damage to plant; 0=no damage to plant) ([2]; Rate 125 g/ha): 100
ECHCG damage to plant (100=total damage to plant; 0=no damage to plant) ([2]; Rate 250 g/ha): 100
HORVW damage to plant (100=total damage to plant; 0=no damage to plant) ([3]; Rate 125 g/ha): 0
HORVW damage to plant (100=total damage to plant; 0=no damage to plant) ([3]; Rate 250 g/ha): 10
AMARE damage to plant (100=total damage to plant; 0=no damage to plant) ([4]; Rate 125 g/ha): 100
AMARE damage to plant (100=total damage to plant; 0=no damage to plant) ([4]; Rate 250 g/ha): 100

COc1ccc(-n2nc(C3CC3)cc(C(=O)C3C(=O)C4CCC(C4)C3=O)c2=O)cc1OC (centres unmarked) [Compound 1.9]
ABUTH damage to plant (100=total damage to plant; 0=no damage to plant) ([1]; Rate 125 g/ha): 100
ABUTH damage to plant (100=total damage to plant; 0=no damage to plant) ([1]; Rate 250 g/ha): 100
ECHCG damage to plant (100=total damage to plant; 0=no damage to plant) ([2]; Rate 125 g/ha): 100
ECHCG damage to plant (100=total damage to plant; 0=no damage to plant) ([2]; Rate 250 g/ha): 100
HORVW damage to plant (100=total damage to plant; 0=no damage to plant) ([3]; Rate 125 g/ha): 0
HORVW damage to plant (100=total damage to plant; 0=no damage to plant) ([3]; Rate 250 g/ha): 10
AMARE damage to plant (100=total damage to plant; 0=no damage to plant) ([4]; Rate 125 g/ha): 90
AMARE damage to plant (100=total damage to plant; 0=no damage to plant) ([4]; Rate 250 g/ha): 100

COc1ccc(-n2nc(C)cc(C(=O)C3C(=O)CC(C)CC3=O)c2=O)cc1OC (centres unmarked) [Compound 1.2]
ABUTH damage to plant (100=total damage to plant; 0=no damage to plant) ([1]; Rate 125 g/ha): 100
ABUTH damage to plant (100=total damage to plant; 0=no damage to plant) ([1]; Rate 250 g/ha): 100
ECHCG damage to plant (100=total damage to plant; 0=no damage to plant) ([2]; Rate 125 g/ha): 100
ECHCG damage to plant (100=total damage to plant; 0=no damage to plant) ([2]; Rate 250 g/ha): 100
HORVW damage to plant (100=total damage to plant; 0=no damage to plant) ([3]; Rate 125 g/ha): 0
HORVW damage to plant (100=total damage to plant; 0=no damage to plant) ([3]; Rate 250 g/ha): 0
AMARE damage to plant (100=total damage to plant; 0=no damage to plant) ([4]; Rate 125 g/ha): 100
AMARE damage to plant (100=total damage to plant; 0=no damage to plant) ([4]; Rate 250 g/ha): 100

COc1ccc(-n2nc(C3CC3)cc(C(=O)C3C(=O)C(C)(C)C(=O)C(C)(C)C3=O)c2=O)cc1OC [Compound 1.11, 6-[6-cyclopropyl-2-(3,4-dimethoxyphenyl)-3-oxo-pyridazine-4-carbonyl]-2,2,4,4-tetramethyl-cyclohexane-1,3,5-trione]
ABUTH damage to plant (100=total damage to plant; 0=no damage to plant) ([1]; Rate 125 g/ha): 100
ABUTH damage to plant (100=total damage to plant; 0=no damage to plant) ([1]; Rate 250 g/ha): 100
ECHCG damage to plant (100=total damage to plant; 0=no damage to plant) ([2]; Rate 125 g/ha): 100
ECHCG damage to plant (100=total damage to plant; 0=no damage to plant) ([2]; Rate 250 g/ha): 100
HORVW damage to plant (100=total damage to plant; 0=no damage to plant) ([3]; Rate 125 g/ha): 0
HORVW damage to plant (100=total damage to plant; 0=no damage to plant) ([3]; Rate 250 g/ha): 0
AMARE damage to plant (100=total damage to plant; 0=no damage to plant) ([4]; Rate 125 g/ha): 100
AMARE damage to plant (100=total damage to plant; 0=no damage to plant) ([4]; Rate 250 g/ha): 100
